The target in this experiment is Prothrombin (Homo sapiens, UniProt P00734). The experiment is described as follows: ChEBML_216950. The method, then: Dissociation constant was evaluated by competitive inhibition of alpha-thrombin using the method of Dixon enzyme assay.

In BindingDB's records for doi:10.1016/s0960-894x(98)00444-2 (Wayne State University, 1999) one finds Ki data, which are given here for one compound.

For orientation: Ki means a dissociation constant, usually derived from enzyme kinetics or from competition with a known ligand. In turn, `C1=[N+]2c3ccccc3C=[N+]3c4ccccc4C=[N+]4c5ccccc5C[N](c5ccccc51)[Pd]234` (stereo unspecified) [Palladium analogue] returned a Ki of 170 µM.
